Laboratory results: US9957264B2 (Merck Sharp & Dohme Corp., priority 2013, dated 2018)

Biological target: JAK1 (recombinant purified GST-tagged catalytic domain) (Homo sapiens (Human), UniProt P23458)
Assay: Jak Biochemical HTRF Assay (JAK1)
Conditions: [ATP] 31.8 μM
Method: Jak Biochemical HTRF Assay Protocol
The ability of compounds to inhibit the activity of JAK1, JAK2, JAK3, and Tyk2 was measured using a recombinant purified GST-tagged catalytic domain for each enzyme (Invitrogen JAK1 #M4290, JAK2 #M4290, JAK3 #M4290, Tyk2 #M4290) in an HTRF format biochemical assay. The reactions employed a common peptide substrate, LCB-[…]-NH2 (in-house). The basic assay protocol is as follows: First, 250 nL of diluted compounds in DMSO were dispensed into the wells of a dry 384-well Black plate (Greiner #781076) using a Labcyte Echo 555 acoustic dispenser. Subsequent reagent additions employed an Agilent Bravo. […] After equilibration, 2 μL of 10×ATP in 1× assay buffer was added to initiate the kinase reaction and the plates were shaken and then incubated at room temperature for 120 minutes. At the end of the incubation, 20 μL of 2× stop buffer (streptavidin-Dylight 650 (Thermo #84547B/100 mL), Eu-tagged pY20 antibody (Perkin Elmer #AD0067), EDTA, HEPES, and Triton) was added to quench the reaction. Plates were shaken and centrifuged and then incubated 60 minutes at room temperature and then read on a Perkin Elmer Envision (λex=337 nm, λem=665 and 615 nm, TRF delay time=20 μs). HTRF signal=10,000*665 nm reading/615 nm reading. After normalization to untreated controls, the percent inhibition of the HTRF signal at each compound concentration was calculated. The plot of percent inhibition versus the log of compound concentration was fit with a 4-parameter dose response equation to calculate IC50 values.
Final reaction conditions were:
Examples of the instant invention were evaluated in JAK1 and JAK2 in vitro binding assays as described above. The following table tabulates the JAK1 IC50 values and JAK2 IC50 values disclosed for the instant invention.

JAK1 (recombinant purified GST-tagged catalytic domain), sequence (P23458 875-1153): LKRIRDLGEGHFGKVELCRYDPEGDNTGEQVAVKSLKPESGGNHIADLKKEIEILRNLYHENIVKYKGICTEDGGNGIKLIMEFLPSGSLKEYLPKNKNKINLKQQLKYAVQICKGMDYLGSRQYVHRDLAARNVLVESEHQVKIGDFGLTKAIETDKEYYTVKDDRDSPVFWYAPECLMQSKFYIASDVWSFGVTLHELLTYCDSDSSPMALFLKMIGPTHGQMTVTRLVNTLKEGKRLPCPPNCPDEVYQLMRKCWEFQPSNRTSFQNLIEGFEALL

C[C@H]1CN(C(=O)OC(C)(C)C)CC[C@]1(CC#N)n1nc(Nc2ccc(S(C)(=O)=O)cc2)c2c(=O)[nH]ccc21 (racemic) [Example 5-10, tert-butyl (3R,4S and 3S,4R)-4-(cyanomethyl)-3-methyl-4-(3-{[4-(methylsulfonyl)phenyl]amino}-4-oxo-4,5-dihydro-1H-pyrazolo[4,3-c]pyridin-1-yl)piperidine-1-carboxylate]
IC50: 0.23 nM

C[C@@H]1CN(C(=O)OC(C)(C)C)CC[C@]1(CC#N)n1nc(Nc2ccc(S(C)(=O)=O)cc2)c2c(=O)[nH]ccc21 (racemic) [Example 5-11, tert-butyl (3S,4S and 3R,4R)-4-(cyanomethyl)-3-methyl-4-(3-{[4-(methylsulfonyl)phenyl]amino}-4-oxo-4,5-dihydro-1H-pyrazolo[4,3-c]pyridin-1-yl)piperidine-1-carboxylate]
IC50: 0.2 nM

CC1(C)Cc2cc(Nc3nn([C@]4(CC#N)CCCOC4)c4cc[nH]c(=O)c34)ccc2C1(O)C(F)(F)F (single isomer, unassigned) [Example 5-119, 2-((S)-3-(3-(((S or R)-1-hydroxy-2,2-dimethyl-1-(trifluoromethyl)-2,3-dihydro-1H-inden-5-yl)amino)-4-oxo-4,5-dihydro-1H-pyrazolo[4,3-c]pyridin-1-yl)tetrahydro-2H-pyran-3-yl)acetonitrile]
IC50: 0.15 nM

CC1(C)Cc2cc(Nc3nn([C@]4(CC#N)CCCOC4)c4cc[nH]c(=O)c34)ccc2C1(O)C(F)(F)F (single isomer, unassigned) [Example 5-120, 2-((S)-3-(3-((S or R)-1-hydroxy-2,2-dimethyl-1-(trifluoromethyl)-2,3-dihydro-1H-inden-5-yl)amino)-4-oxo-4,5-dihydro-1H-pyrazolo[4,3-c]pyridin-1-yl)tetrahydro-2H-pyran-3-yl)acetonitrile]
IC50: 0.07 nM

Cc1cc(Nc2nn([C@]3(CC#N)CC[C@@H](C(=O)OC(C)(C)C)OC3)c3cc[nH]c(=O)c23)ccc1C(=O)N1CCSC(C)C1 (single isomer, unassigned) [Example 5-158, (2S,5S)-tert-butyl 5-(cyanomethyl)-5-(3-((3-methyl-4-((S or R)-2-methylthiomorpholine-4-carbonyl)phenyl)amino)-4-oxo-4,5-dihydro-1H-pyrazolo[4,3-c]pyridin-1-yl)tetrahydro-2H-pyran-2-carboxylate]
IC50: 0.28 nM

Cc1cc(Nc2nn([C@]3(CC#N)CC[C@@H](C(=O)OC(C)(C)C)OC3)c3cc[nH]c(=O)c23)ccc1C(=O)N1CCSC(C)C1 (single isomer, unassigned) [Example 5-159, (2S,5S)-tert-butyl 5-(cyanomethyl)-5-(3-((3-methyl-4-((S or R)-2-methylthiomorpholine-4-carbonyl)phenyl)amino)-4-oxo-4,5-dihydro-1H-pyrazolo[4,3-c]pyridin-1-yl)tetrahydro-2H-pyran-2-carboxylate]
IC50: 0.24 nM

Cc1cc(Nc2nn([C@]3(CC#N)CC[C@@H](C(=O)OC(C)(C)C)OC3)c3cc[nH]c(=O)c23)ccc1C(=O)N1CCC(O)(C(F)(F)F)C1 (single isomer, unassigned) [Example 5-160, (2S,5S)-tert-butyl 5-(cyanomethyl)-5-(3-((4-((S or R)-3-hydroxy-3-(trifluoromethyl)pyrrolidine-1-carbonyl)-3-methylphenyl)amino)-4-oxo-4,5-dihydro-1H-pyrazolo[4,3-c]pyridin-1-yl)tetrahydro-2H-pyran-2-carboxylate]
IC50: 0.22 nM

Cc1cc(Nc2nn([C@]3(CC#N)CC[C@@H](C(=O)OC(C)(C)C)OC3)c3cc[nH]c(=O)c23)ccc1C(=O)N1CCC(O)(C(F)(F)F)C1 (single isomer, unassigned) [Example 5-161, (2S,5S)-tert-butyl 5-(cyanomethyl)-5-(3-((4-((S or R)-3-hydroxy-3-(trifluoromethyl)pyrrolidine-1-carbonyl)-3-methylphenyl)amino)-4-oxo-4,5-dihydro-1H-pyrazolo[4,3-c]pyridin-1-yl)tetrahydro-2H-pyran-2-carboxylate]
IC50: 0.29 nM

CC(C)(C)OC(=O)[C@@H]1CC[C@@](CC#N)(n2nc(Nc3ccc(C(O)(C(C)(C)C)C(F)(F)F)cc3)c3c(=O)[nH]ccc32)CO1 (single isomer, unassigned) [Example 5-166, (2S,5S)-tert-butyl 5-(cyanomethyl)-5-(4-oxo-3-((4-((S or R)-1,1,1-trifluoro-2-hydroxy-3,3-dimethylbutan-2-yl)phenyl)amino)-4,5-dihydro-1H-pyrazolo[4,3-c]pyridin-1-yl)tetrahydro-2H-pyran-2-carboxylate]
IC50: 1.28 nM

CC(C)(C)OC(=O)[C@@H]1CC[C@@](CC#N)(n2nc(Nc3ccc(C(O)(C(C)(C)C)C(F)(F)F)cc3)c3c(=O)[nH]ccc32)CO1 (single isomer, unassigned) [Example 5-167, (2S,5S)-tert-butyl 5-(cyanomethyl)-5-(4-oxo-3-((4-((S or R)-1,1,1-trifluoro-2-hydroxy-3,3-dimethylbutan-2-yl)phenyl)amino)-4,5-dihydro-1H-pyrazolo[4,3-c]pyridin-1-yl)tetrahydro-2H-pyran-2-carboxylate]
IC50: 0.83 nM

CC(C)S(=N)(=O)c1ccc(Nc2nn([C@]3(CC#N)CC[C@@H](C(=O)OC(C)(C)C)OC3)c3cc[nH]c(=O)c23)cc1 (single isomer, unassigned) [Example 5-230, (2S,5S)-tert-butyl 5-(cyanomethyl)-5-(4-oxo-3-((4-(propan-2-yl-(S or R)-sulfonimidoyl)phenyl)amino)-4,5-dihydro-1H-pyrazolo[4,3-c]pyridin-1-yl)tetrahydro-2H-pyran-2-carboxylate]
IC50: 0.12 nM

CC(C)S(=N)(=O)c1ccc(Nc2nn([C@]3(CC#N)CC[C@@H](C(=O)OC(C)(C)C)OC3)c3cc[nH]c(=O)c23)cc1 (single isomer, unassigned) [Example 5-231, (2S,5S)-tert-butyl 5-(cyanomethyl)-5-(4-oxo-3-((4-(propan-2-yl-(S or R)-sulfonimidoyl)phenyl)amino)-4,5-dihydro-1H-pyrazolo[4,3-c]pyridin-1-yl)tetrahydro-2H-pyran-2-carboxylate]
IC50: 0.12 nM

CC(C)(C)N1Cc2cc(Nc3nn([C@]4(CC#N)CCOC[C@@H]4F)c4cc[nH]c(=O)c34)ccc2C1=O (single isomer, unassigned) [Example 5-259, 2-((3R,4R or 3S,4S)-4-(3-((2-(tert-butyl)-1-oxoisoindolin-5-yl)amino)-4-oxo-4,5-dihydro-1H-pyrazolo[4,3-c]pyridin-1-yl)-3-fluorotetrahydro-2H-pyran-4-yl)acetonitrile]
IC50: 0.04 nM

CC(C)(C)N1Cc2cc(Nc3nn([C@@]4(CC#N)CCOC[C@H]4F)c4cc[nH]c(=O)c34)ccc2C1=O (single isomer, unassigned) [Example 5-260, 2-((3S,4S or 3R,4R)-4-(3-(2-tert-butyl-1-oxoisoindolin-5-ylamino)-4-oxo-4,5-dihydropyrazolo[4,3-c]pyridin-1-yl)-3-fluoro-tetrahydro-2H-pyran-4-yl)acetonitrile]
IC50: 0.26 nM

N#CC[C@]1(n2nc(Nc3ccc4c(c3)CN(C3CCNCC3)S4(=O)=O)c3c(=O)[nH]ccc32)CCOC[C@H]1F (single isomer, unassigned) [Example 5-271, 2-[(3S,4S or 3R,4R)-4-(3-{[1,1-dioxo-2-(piperidin-4-yl)-3H-1,2-benzothiazol-5-yl]amino}-4-oxo-5H-pyrazolo[4,3-c]pyridin-1-yl)-3-fluorooxan-4-yl]acetonitrile]
IC50: 0.25 nM
